Literature values as cited in patent US8178105B2, “Composition containing Agaricus blazei Murill” (Kyowa Hakko Bio Co., Ltd., priority 2006, dated 2012).

System: Sarcoma-180
Conditions: oral administration; Sarcoma-180 transplanted mouse; non-patent document 5

## N=C(N)NCCC[C@H](N)C(=O)O [arginine]
  antitumor effect and life extension (in words): marked antitumor effect and life extension
